Measurements published in patent US20110294855A1, “Active Compound Combinations” (BAYER CROPSCIENCE AG, priority 2009, published 2011).

Test system: Microdochium nivale
Test: Microdochium nivale test (lawn)/protective
Format: in vivo
Settings: lawn (100% Agrostis stolonifera), preventive application at 2000, 1000, 500 and 100 g/ha, inoculation 24 hours later, scoring after 5, 7, 14 and 21 days
Protocol: Microdochium Nivale Test (Lawn)/Protective
Lawn seed (100% Agrostis stolonifera) was sown in dishes of the dimensions 38 cm×15 cm×9 cm. 7 days after sowing, the lawn was cut prior to preventive guanidinium hydroxide application at application rates of 2000, 1000, 500 and 100 g/ha. The water application rates were 1000 l/ha (converted). 24 hours after the preventive application of the active compound, the lawn was inoculated by placing of wheat grains infected with Microdochium nivale. In each case 3 wheat grains were placed into a single dish. Scoring of the subsequent fungal growth in the lawn dishes was carried out after 5, 7, 14 and 21 days. In the dishes which had been treated with guanidinium hydroxide, an inhibition of the growth of Microdochium nivale of up to 30% (Abbott) was observed.

In the case of N=C(N)N.O [guanidinium hydroxide], the “inhibition of the growth of Microdochium nivale (Abbott)” value is reported as “up to 30%”.
